This note sets out measurements from patent publication US20190166840A1, “SUBSTITUTED PYRAZOLINYL DERIVATIVES, PROCESSES FOR THEIR PREPARATION AND THEIR USE AS HERBICIDES AND/OR PLANT GROWTH REGULATORS” (BAYER CROPSCIENCE AKTIENGESELLSCHAFT, priority 2016, published 2019).

Type in all cases: in vivo
Conditions in all cases: application rate 1280 g/ha, scored visually after about 3 weeks

For assay [1], the system named is Setaria viridis. Put plainly: Pre-emergence herbicidal action, SETVI. The text has this:
(§1) Pre-Emergence Herbicidal Action Seeds of mono- and dicotyledonous weed plants or crop plants were placed in sandy loam in wood fibre pots and covered with soil. The formulated compounds of the general formula (I) according to the invention were then applied to the surface of the covering soil in the form of an aqueous suspension or emulsion at an application rate of 600 l of water/ha (converted) with addition of 0.2% wetting agent. After the treatment, the pots were placed in a greenhouse and kept under good growth conditions for the test plants. After about 3 weeks, the effect was scored visually in percent in comparison to untreated controls. For example, 100% activity=the plants have died, 50% herbicidal activity or damage=plants reduced to 50% or plant material reduced by 50%, 0% activity=like control plants. Here, in the biological tests, the compounds of the general formula (I) according to the invention were in each case employed in a formulation, with the numerations of Tables I.1 to I.77 also applying here. Here, the herbicidal action of the compounds of the general formula (I) according to the invention was examined for the following harmful plants: SETVI=Setaria viridis The respective herbicidal action was in each case determined at the same point in time after application of the formulation in question, i.e. damage of the harmful plant in question in %. Pre-emergence herbicidal action of the compounds of the general formula (I) according to the invention: […]

Assay [2] relates to Matricaria inodora (=Tripleurospermum maritimum subsp. inodorum). Nature of the assay: Pre-emergence herbicidal action, MATIN.
Excerpt: as §1, with “MATIN=Matricaria inodora (=Tripleurospermum maritimum subsp. inodorum)” for “SETVI=Setaria viridis”

Assay [3] concerns Ipomoea purpurea. Nature of the assay: Pre-emergence herbicidal action, PHBPU.
Excerpt: as §1, with “PHBPU=Ipomoea purpurea” for “SETVI=Setaria viridis”

Assay [4] relates to Viola tricolor. Put plainly: Pre-emergence herbicidal action, VIOTR.
Excerpt: as §1, with “VIOTR=Viola tricolor” for “SETVI=Setaria viridis”

Assay [5] concerns Hordeum murinum. Nature of the assay: Pre-emergence herbicidal action, HORMU.
Excerpt: as §1, with “HORMU=Hordeum murinum” for “SETVI=Setaria viridis”

As for `CC1=C(C)C(O)N(C2=NN(c3ccccn3)C(C)(C)C2)C1=O` (stereo not drawn) [I.2-132], in assay [1], the “Pre-emergence herbicidal action SETVI, damage of the harmful plant” value (“Pre-emergence herbicidal action SETVI” for short) stood at 40%. In addition, the “Pre-emergence herbicidal action MATIN, damage of the harmful plant” value (from here on “Pre-emergence herbicidal action MATIN”) in assay [2] came out at 0%. In assay [3], the “Pre-emergence herbicidal action PHBPU, damage of the harmful plant” value (from here on “Pre-emergence herbicidal action PHBPU”) is on record as 0%. In assay [4], the “Pre-emergence herbicidal action VIOTR, damage of the harmful plant” value (from here on “Pre-emergence herbicidal action VIOTR”) was 80%. Further, the “Pre-emergence herbicidal action HORMU, damage of the harmful plant” value (from here on “Pre-emergence herbicidal action HORMU”) in assay [5] is 0%.

For `CC1=C(C)C(O)N(C2=NN(c3ccccc3)C(C(F)(F)F)C2)C1=O` (stereo not drawn) [I.2-1413], the “Pre-emergence herbicidal action SETVI” value in assay [1] is 70%. Besides, the “Pre-emergence herbicidal action MATIN” value in assay [2] was 100%. Further, the “Pre-emergence herbicidal action PHBPU” value in assay [3] is recorded as 0%. In addition, the “Pre-emergence herbicidal action VIOTR” value in assay [4] stood at 100%. The “Pre-emergence herbicidal action HORMU” value in assay [5] is reported as 60%.

As for `CCC(=O)OC1C(C)=C(C)C(=O)N1C1=NN(c2ccccn2)C(C)(C)C1` (stereo not drawn) [I.23-132], the “Pre-emergence herbicidal action SETVI” value in assay [1] is listed as 0%. For the same molecule, in assay [2], the “Pre-emergence herbicidal action MATIN” value was 40%. For the same molecule, the “Pre-emergence herbicidal action PHBPU” value in assay [3] is reported as 30%. Also, the “Pre-emergence herbicidal action VIOTR” value in assay [4] came out at 70%. For the same molecule, the “Pre-emergence herbicidal action HORMU” value in assay [5] is 20%.

For the molecule `CCC(=O)OC1C(C)=C(C)C(=O)N1C1=NN(c2ccccc2)CC1` (stereo not drawn) [I.23-621], the “Pre-emergence herbicidal action SETVI” value in assay [1] was determined as 50%. Further, in assay [2], the “Pre-emergence herbicidal action MATIN” value was found to be 50%. Moreover, in assay [3], the “Pre-emergence herbicidal action PHBPU” value turned out to be 0%. In addition, the “Pre-emergence herbicidal action VIOTR” value in assay [4] is listed as 70%. Moreover, in assay [5], the “Pre-emergence herbicidal action HORMU” value was 0%.

As for `CCC(=O)OC1C(C)=C(C)C(=O)N1C1=NN(c2ccccc2)C(C(F)(F)F)C1` (stereo not drawn) [I.23-1413], in assay [1], the “Pre-emergence herbicidal action SETVI” value came out at 40%. In assay [2], the “Pre-emergence herbicidal action MATIN” value was found to be 70%. The “Pre-emergence herbicidal action PHBPU” value in assay [3] is listed as 0%. Also, in assay [4], the “Pre-emergence herbicidal action VIOTR” value amounted to 100%. The “Pre-emergence herbicidal action HORMU” value in assay [5] stood at 30%.

As for `CCC(=O)OC1C(C)=C(Cl)C(=O)N1C1=NN(C)C(c2ccccc2)C1` (stereo not drawn) [I.24-1126], in assay [1], the “Pre-emergence herbicidal action SETVI” value is reported as 0%. Besides, in assay [2], the “Pre-emergence herbicidal action MATIN” value is 90%. Also, the “Pre-emergence herbicidal action PHBPU” value in assay [3] is listed as 100%. Also, the “Pre-emergence herbicidal action VIOTR” value in assay [4] came out at 10%. Besides, in assay [5], the “Pre-emergence herbicidal action HORMU” value is on record as 20%.
